Values after ≈ are worked out from the molar mass of the structure shown. Like-named read-outs stand apart in the source and are kept apart here. Where a SMILES comes first, the peptide text is derived from it. The star is where a group is joined. Myristoyl = CCCCCCCCCCCCCC(=O)*; Lauroyl = CCCCCCCCCCCC(=O)*; Decanoyl = CCCCCCCCCC(=O)*; Octanoyl = CCCCCCCC(=O)*; Hexanoyl = CCCCCC(=O)*
Columns and labels:
[1] = system: S. aureus ATCC 25923; assay type: cell-based, Staphylococcus aureus
Text: (§1) Bacteria used in this study were Escherichia coli ATCC 25922 and O18K1H7, Staphylococcus aureus ATCC 25923 and ATCC 29213, Pseudomonas aeruginosa ATCC 27853, Staphylococcus epidermidis ATCC 12228, Enterococcus faecalis ATCC 29212, Bacillus subtilis DSM 4181, Listeria monocytogenes DSM 20600, Salmonella typhimurium ATCC 14028, Acinetobacter baumannii ATCC 19606 and 17978, Klebsiella pneumoniae ATCC 13883 and 700603, Stenotrophomonas maltophilia ATCC 13637 and Burkholderia cenocepacia J2315. In addition to reference strains, a clinical isolate of E. faecalis vancomycin-resistant (VREF, strain M), and three clinical isolates of S. aureus methicillin-resistant (MRSA, strains E, G and 11), kindly provided by Dr. Lucilla Dolzani, were used. All MRSA strains are resistant to GEN, IPM, OXA, PEN, CIP and CEF; the S. aureus E strain is also resistant to CLI and ERY. VREF strain is resistant to AMK, ATM, GEN, NET, PEN, TEC, TET, TOB and VAN.
(§2) For the assays, overnight bacterial cultures were diluted 1:30 in fresh Mueller-Hinton Broth (MHB, Difco) and incubated at 37°C with shaking for approximately 2h.
(§3) The antimicrobial activity of USCLs was determined by the Minimum Inhibitory Concentration (MIC) assay, according to the guidelines of CLSI (Clinical & Laboratory Standards Institute) and described in [30, 31]. Briefly, the assays were performed in 96-well microplates in appropriate broth (MHB or SAB). […] For bacteria, a mid-log phase bacterial suspension at 2.5 × 10^5 CFU/mL in MHB was used, and the microplates incubated at 37°C for 24h. The fungal suspension in SAB broth was used at a final concentration of 5 × 10^4 cells/mL. Microplates were then incubated at 30°C for 48h. The MIC value was taken as the lowest concentration of USCLs resulting in the complete inhibition of visible bacterial or fungal growth after appropriate incubation time. Results derive from at least three independent experiments carried out in duplicate.

[2] = RP-HPLC retention time (hydrophobicity); assay type: physicochemical; conditions: stated to reliably reflect the hydrophobicity in aqueous solution, assessed and provided by GenScript
Protocol: GenScript (Piscataway, NJ, USA) carried out the custom synthesis of USCLs by using high efficient solid phase peptide synthesis. The fatty acid was conjugated to the N-terminus of the peptide using the same procedure followed to attach protected amino acids to the growing peptide chain for synthesis. The purity (>90%), sequence and molecular weight of USCLs were assessed and provided by GenScript using RP-HPLC and ESI-MS. USCLs were dissolved in sterile water or DMSO at 10 mg/mL, according to manufacturer's indications.

[3] = system: P. aeruginosa ATCC 27853; assay type: cell-based, Pseudomonas aeruginosa
Text: as §1, §2, §3

[4] = system: E. coli ATCC 25922; assay type: cell-based, Escherichia coli
Text: as §1, §2, §3

[5] = MHB, 2.5 × 10^5 CFU/mL, 24h at 37°C, at least three independent experiments in duplicate

CCCCCCCCCCCC(=O)N[C@@H](CCCNC(=N)N)C(=O)N[C@@H](C)C(=O)N[C@@H](Cc1c[nH]c2ccccc12)C(=O)N[C@@H](CCCNC(=N)N)C(N)=O [Lp-A, Lau-RAWR-NH2] (Lauroyl-RAWR-NH2)
MIC ([1]; ATCC 25923, 24 h): 6.25 µg/mL (≈ 8.13 µM) | Retention time [2]: 18.931 min | MIC ([3]; ATCC 27853, 24 h): 25 µg/mL (≈ 32.5 µM)

CCCCCCCCCCCC(=O)N[C@@H](CCCNC(=N)N)C(=O)N[C@@H](CS)C(=O)N[C@@H](Cc1c[nH]c2ccccc12)C(=O)N[C@@H](CCCNC(=N)N)C(N)=O [Lp-C, Lau-RCWR-NH2] (Lauroyl-RCWR-NH2)
MIC ([1]; ATCC 25923, 24 h): 50 µg/mL (≈ 62.4 µM) | MIC ([4]; ATCC 25922, 24 h): 200 µg/mL (≈ 250 µM) | Retention time [2]: 22.492 min | MIC ([3]; ATCC 27853, 24 h): 200 µg/mL (≈ 250 µM)

CCCCCCCCCC(=O)N[C@@H](CCCNC(=N)N)C(=O)N[C@@H](Cc1ccccc1)C(=O)N[C@@H](Cc1c[nH]c2ccccc12)C(=O)N[C@@H](CCCNC(=N)N)C(N)=O [Lp-F^Dec, Dec-RFWR-NH2] (Decanoyl-RFWR-NH2)
MIC ([4]; ATCC 25922, 24 h): 25 µg/mL (≈ 30.6 µM) | Retention time [2]: 22.639 min | MIC ([3]; ATCC 27853, 24 h): 50 µg/mL (≈ 61.2 µM)

CCCCCC(=O)N[C@@H](CCCNC(=N)N)C(=O)N[C@@H](Cc1ccccc1)C(=O)N[C@@H](Cc1c[nH]c2ccccc12)C(=O)N[C@@H](CCCNC(=N)N)C(N)=O [Lp-F^Hex, Hex-RFWR-NH2] (Hexanoyl-RFWR-NH2)
MIC ([1]; MHB, 2.5 × 10^5 CFU/mL, 24h at 37°C, at least three independent experiments in duplicate, two values when replicates differed by one well): >400 µg/mL | MIC [4, 5]: >400 µg/mL | Retention time [2]: 18.675 min | MIC [3, 5]: >400 µg/mL

CCCCCCCCCCCCCC(=O)N[C@@H](CCCNC(=N)N)C(=O)N[C@@H](Cc1ccccc1)C(=O)N[C@@H](Cc1c[nH]c2ccccc12)C(=O)N[C@@H](CCCNC(=N)N)C(N)=O [Lp-F^Myr, Myr-RFWR-NH2] (Myristoyl-RFWR-NH2)
MIC ([1]; ATCC 25923, 24 h): 6.25 µg/mL (≈ 7.16 µM) | Retention time [2]: 26.654 min | MIC ([3]; ATCC 27853, 24 h): 50 µg/mL (≈ 57.3 µM)

CCCCCCCC(=O)N[C@@H](CCCNC(=N)N)C(=O)N[C@@H](Cc1ccccc1)C(=O)N[C@@H](Cc1c[nH]c2ccccc12)C(=O)N[C@@H](CCCNC(=N)N)C(N)=O [Lp-F^Oct, Oct-RFWR-NH2] (Octanoyl-RFWR-NH2)
MIC ([1]; ATCC 25923, 24 h): 100 µg/mL (≈ 127 µM) | Retention time [2]: 17.974 min | MIC ([3]; ATCC 27853, 24 h): 100 µg/mL (≈ 127 µM)

CCCCCCCCCCCC(=O)N[C@@H](CCCNC(=N)N)C(=O)NCC(=O)N[C@@H](Cc1c[nH]c2ccccc12)C(=O)N[C@@H](CCCNC(=N)N)C(N)=O [Lp-G, Lau-RGWR-NH2] (Lauroyl-RGWR-NH2)
MIC ([1]; ATCC 25923, 24 h): 6.25 µg/mL (≈ 8.28 µM) | MIC ([4]; ATCC 25922, 24 h): 25 µg/mL (≈ 33.1 µM) | Retention time [2]: 18.415 min | MIC ([3]; ATCC 27853, 24 h): 50 µg/mL (≈ 66.2 µM)

CCCCCCCCCCCC(=O)N[C@@H](CCCNC(=N)N)C(=O)N[C@@H](Cc1c[nH]cn1)C(=O)N[C@@H](Cc1c[nH]c2ccccc12)C(=O)N[C@@H](CCCNC(=N)N)C(N)=O [Lp-H, Lau-RHWR-NH2] (Lauroyl-RHWR-NH2)
MIC ([1]; ATCC 25923, 24 h): 6.25 µg/mL (≈ 7.48 µM) | MIC ([4]; ATCC 25922, 24 h): 25 µg/mL (≈ 29.9 µM) | Retention time [2]: 21.476 min | MIC ([3]; ATCC 27853, 24 h): 100 µg/mL (≈ 120 µM)

CCCCCCCCCCCC(=O)N[C@@H](CCCNC(=N)N)C(=O)N[C@@H](CC(C)C)C(=O)N[C@@H](Cc1c[nH]c2ccccc12)C(=O)N[C@@H](CCCNC(=N)N)C(N)=O [Lp-L, Lau-RLWR-NH2] (Lauroyl-RLWR-NH2)
MIC ([4]; ATCC 25922, 24 h): 25 µg/mL (≈ 30.8 µM) | Retention time [2]: 23.079 min | MIC ([3]; ATCC 27853, 24 h): 25 µg/mL (≈ 30.8 µM)

CCCCCCCCCCCC(=O)N[C@@H](CCCNC(=N)N)C(=O)N[C@@H](CO)C(=O)N[C@@H](Cc1c[nH]c2ccccc12)C(=O)N[C@@H](CCCNC(=N)N)C(N)=O [Lp-S, Lau-RSWR-NH2] (Lauroyl-RSWR-NH2)
MIC ([1]; ATCC 25923, 24 h): 6.25 µg/mL (≈ 7.96 µM) | MIC ([4]; ATCC 25922, 24 h): 25 µg/mL (≈ 31.8 µM) | Retention time [2]: 16.117 min | MIC ([3]; ATCC 27853, 24 h): 25 µg/mL (≈ 31.8 µM)

CCCCCCCCCCCC(=O)N[C@@H](CCCNC(=N)N)C(=O)N[C@H](C(=O)N[C@@H](Cc1c[nH]c2ccccc12)C(=O)N[C@@H](CCCNC(=N)N)C(N)=O)C(C)C [Lp-V, Lau-RVWR-NH2] (Lauroyl-RVWR-NH2)
MIC ([1]; ATCC 25923, 24 h): 6.25 (6.25) μg/mL | MIC ([4]; ATCC 25922, 24 h): 12.5 (12.5) μg/mL | Retention time [2]: 19.317 min

Lau-RFWR-NH2 [Lp-F^Lau]
Retention time [2]: 23.592 min

Source: article PMC6383929, “Design, antimicrobial activity and mechanism of action of Arg-rich ultra-short cationic lipopeptides” (PLoS ONE, 2019)
